Type in all cases: in vivo
In assay [1] the test system is tyrosine hydroxylase (TH). Description: Striatal tyrosine hydroxylase (TH) activity after MA. The settings on record: p.o.; AME 50, EBS 20, rottlerin 20 mg/kg; MA 8 mg/kg i.p. x4; GPx-1 (+/+) and (−/−) mice. As for the experimental part:
(§1) The mice received four times of MA (8 mg/kg, ip) or saline as a 2 hr-time interval. Chemicals (AME, EBS, and PKC inhibitors) were administrated for 5 consecutive days (twice daily), and were given 2 times at 4 hr and 30 min before the first MA injection as shown in the experimental schedule. Animals were sacrificed at 4 hrs and 3 days after the final MA administration.
TH activity was measured according to the method of Lucock et al. with some modification (Duan et al., 2005). Briefly, striatum was lysed in 400 μl TH working solution (1-tyrosine: 300 μmol/L; FeSO4: 1 mmol/L; NaAC: 200 mmol/L; NSD-1050:500 won; DTT: 1 mmol/L; MES: 40 mmol/L, pH 5.2-5.6) with freezing-thawing repeatedly for three times. The lysate was reacted for 3 h at 25° C. The reaction was stopped by 0.4 mol/L perchloric acid, and then reactant was centrifuged at 14,000×g for 10 min. Supernatants were collected to assay the amounts of 1-dopa by HPLC-ECD. The activity of TH was expressed as that amount of 1-dopa per minute and per gram of wet tissue.

Assay [2] deals with MDA, 4-HNE. Description: Striatal lipid peroxidation (MDA, 4-HNE) after MA. The settings on record: MDA and 4-HNE; striatum, 3 days after final MA; p.o.; AME 50, EBS 20, rottlerin 20 mg/kg; GPx-1 (+/+) and (−/−) mice. On the procedure: as §1
The amount of lipid peroxidation was assessed by measuring the accumulation of thiobarbituric acid-reactive substance in homogenates of striatal tissue and is expressed as malondialdehyde (MDA) content (Kim et al., 1999, 2000b, 2002). In brief, 0.1 ml of the homogenate (or standard solutions prepared daily from 1,1,3,3-tetra-methoxypropane) and 0.75 ml of the working solution (thiobarbituric acid 0.37% and perchloric acid 6.4%, 2:1 v/v) were mixed and heated in a water bath to 95° C. for 1 h. After cooling (10 min in ice water bath), the flocculent precipitate was removed by centrifugation at 3200×g for 10 min. The supernatant was neutralized and filtered prior to injection on an ODS 5 μm column. Mobile phase consisted of 50 mM PBS (pH 6.0): methanol (58:42, v/v). Isocratic separation was performed with 1.0 ml/min flow rate and detection at 532 nm using a UV/VIS HPLC-Detector (Model 486, Waters Associates, Milford, Mass., USA). MDA values were expressed as nmole/mg protein.
4-hydroxy-2-nonenal (4HNE) is major product of the lipid peroxidation process (Benedetti et al., 1980). Determining of 4HNE was performed as slot blot analysis (Zhang et al., 2000). Briefly, following transfer, the PVDF membranes were preincubated with 5% non-fat milk and incubated overnight at 4° C. with anti-4HNE (1:2000, Calbiochem, San Diego, Calif., USA). After incubation with primary antibody, membranes were incubated with a HRP-conjugated secondary antibody. Subsequent visualization was performed using enhanced chemiluminescence system (ECL Plus®, GE healthcare).

For assay [3], the system named is PKCδ. Description: Striatal PKCδ expression after MA (western blot). The settings on record: MA 8 mg/kg i.p. x4, GPx-1 (+/+) and (−/−) mice; for effect on MA-induced striatal PKCδ expression: p.o., AME 25 or 50, EBS 10 or 20, rottlerin 10 or 20 mg/kg. On the procedure:
as §1
Tissues were homogenized in lysis buffer, containing 200 mM Tris HCl (pH 6.8), 1% SDS, 5 mM EGTA (ethylene glycol tetraacetic acid), 5 mM EDTA (ethylenediaminetetraacetic acid), 10% glycerol, 1× phosphatase inhibitor cocktail I, 1× protease inhibitor cocktail. Lysate was centrifuged at 12,000×g for 30 min and supernatant fraction was used for Western blot analysis. […] And then, membranes were incubated with HRP-conjugated secondary anti-rabbit IgG (1:1000, GE healthcare, Piscataway, N.J., USA), anti-mouse IgG (1:1000, Sigma) or anti-goat IgG (1:1000, Sigma) for 2 h. Subsequent visualization was performed using enhanced chemiluminescence system (ECL Plus®, GE healthcare).
A general note: A western blot detects proteins with antibodies after separation by electrophoresis.

Assay [4] concerns GPx-1 (+/+)- and GPx-1 (−/−)-mice. Briefly: Locomotor activity after MA. The settings on record: MA 8 mg/kg i.p. x4, GPx-1 (+/+) and (−/−) mice. As for the experimental part: as §1
Locomotor activity was measured for 30 min 3 days after the last MA administration using an automated video-tracking system (Noldus Information Technology, Wagenin, The Netherlands). Four test boxes (40×40×30 cm high) were operated simultaneously by an IBM computer. Mice were studied individually during locomotion in each test box, where they were adapted for 5 min before starting the experiment. […] The distance traveled in cm by the animals in horizontal locomotor activity was analyzed. Data were collected and analyzed between 09:00 and 17:00 h (Kim et al., 2001).

The test system is the same in assay [5]. Briefly: Rota-rod test after MA. To be noted: MA 8 mg/kg i.p. x4, GPx-1 (+/+) and (−/−) mice. As for the experimental part:
as §1
The apparatus (Ugo Basile model 7650, Comerio, VA, Italy) consisted of a base platform and a rotating rod with a nonslippery surface. The rod was placed at a height of 15 cm from the base. The rod, 30 cm in length, was divided into 5 equal sections by 6 opaque disks (so that the subjects cannot be distracted by one another) To assess motor performance, the mice first trained on the apparatus 2 minutes at a constant rate of 4 r.p.m. per 30 s prior to the test. The test was performed 30 minutes after training and an accelerating paradigm was applied, starting from a rate of 4 r.p.m. to a maximum speed of 40 r.p.m., then the rotation speed was kept constant at 40 r.p.m. for a maximum of 300 s. The duration for which the animal could maintain balance on the rotating drum was measured as the rotarod latency, with a maximal cut-off time of 300 s.

Setting [6] is: p.o., AME 25 or 50, EBS 10 or 20, rottlerin 10 or 20 mg/kg.
Setting [7] is: PKC inhibitors intra-striatal (chelerythrine 0.2 ug/head, rottlerin 3.0 ug/head significant).

Consider 3 compounds from patent publication US20120328696A1, “ANTI-PARKINSONIAN COMPOUND ACETYLSALICYLIC ACID MALTOL ESTER” (Hutecs Korea Pharmaceutical Co., Ltd., priority 2008, published 2012).

In the case of `CC(=O)Oc1ccccc1C(=O)Oc1c(C)occc1=O` [AME, 3-(2-methyl-4-pyronyl)-2-acetyloxybenzoate], the “effect on MA-induced decrease in TH activity” value (“effect on MA-induced decrease” below) in assay [1] is given as “decrease in TH activity was attenuated”. Also, in assay [2], the “effect on MA-induced increase in lipid peroxidation” value is “significantly attenuated”. Moreover, the “effect on MA-induced striatal PKCδ expression” value in assay [3] was “significantly reduced MA-induced the PKCδ- and cleaved PKCδ-expressions in a dose-related manner”. The “effect on MA-induced impairment in locomotor activity” value (shortened to “effect … in locomotor activity”) in assay [4] (setting [6]) was “inhibited these effects in a dose-dependent manner”. For the same compound, the “effect on MA-induced impairment in rota-rod performance” value (from here on “effect … in rota-rod performance”) in assay [5] (setting [6]) was “inhibited these effects in a dose-dependent manner”.

`O=c1c2ccccc2[se]n1-c1ccccc1` [EBS, 2-phenyl-1,2-benzisoselenazol-3(2H)-one]: the “effect on MA-induced decrease” value in assay [1] is listed as “decrease in TH activity was attenuated”. Also, the “effect on MA-induced increase in lipid peroxidation” value in assay [2] is listed as “significantly attenuated”. For the same compound, the “effect on MA-induced striatal PKCδ expression” value in assay [3] is “significantly reduced MA-induced the PKCδ- and cleaved PKCδ-expressions in a dose-related manner”. Besides, the “effect … in locomotor activity” value in assay [4] (setting [6]) is “inhibited these effects in a dose-dependent manner”. Moreover, in assay [5] (setting [6]), the “effect … in rota-rod performance” value is given as “inhibited these effects in a dose-dependent manner”.

In the case of `CC(=O)c1c(O)c(C)c(O)c(Cc2c(O)c3c(c(C(=O)/C=C/c4ccccc4)c2O)OC(C)(C)C=C3)c1O` [rottlerin], the “effect on MA-induced decrease” value in assay [1] is “decrease in TH activity was attenuated”. In addition, the “effect on MA-induced increase in lipid peroxidation” value in assay [2] was “significantly attenuated”. Further, in assay [3] (intra-striatal), the “effect on MA-induced increase in striatal PKCδ expression” value is “attenuated the MA-induced increases in PKCδ expressions in a dose-dependent manner”. Besides, the “effect on MA-induced striatal PKCδ expression” value in assay [3] was “significantly reduced MA-induced the PKCδ- and cleaved PKCδ-expressions in a dose-related manner”. Besides, the “effect … in locomotor activity” value is on record as “attenuated the MA-behavioral impairments in a dose-dependent manner” in assay [4] (setting [7]) and “inhibited these effects in a dose-dependent manner” in assay [4] (setting [6]). In addition, the “effect … in rota-rod performance” value was “attenuated the MA-behavioral impairments in a dose-dependent manner” in assay [5] (setting [7]) and “inhibited these effects in a dose-dependent manner” in assay [5] (setting [6]).
